{"source": "BigSolDB 2.1"}
{"smiles": "Cc1cc(Cl)ccc1OCC(=O)O", "values": [{"measurement": "solubility (mole fraction)", "setting": "in acetone, 278.15 K", "result": 0.158}, {"measurement": "solubility (mole fraction)", "setting": "in acetone, 283.15 K", "result": 0.171}, {"measurement": "solubility (mole fraction)", "setting": "in acetone, 288.15 K", "result": 0.188}, {"measurement": "solubility (mole fraction)", "setting": "in acetone, 293.15 K", "result": 0.201}, {"measurement": "solubility (mole fraction)", "setting": "in acetone, 298.15 K", "result": 0.22}, {"measurement": "solubility (mole fraction)", "setting": "in acetone, 303.15 K", "result": 0.239}, {"measurement": "solubility (mole fraction)", "setting": "in acetone, 308.15 K", "result": 0.258}, {"measurement": "solubility (mole fraction)", "setting": "in acetone, 313.15 K", "result": 0.281}, {"measurement": "solubility (mole fraction)", "setting": "in acetone, 318.15 K", "result": 0.301}, {"measurement": "solubility (mole fraction)", "setting": "in acetone, 323.15 K", "result": 0.32}, {"measurement": "solubility (mole fraction)", "setting": "in acetonitrile, 278.15 K", "result": 0.0254}, {"measurement": "solubility (mole fraction)", "setting": "in acetonitrile, 283.15 K", "result": 0.0342}, {"measurement": "solubility (mole fraction)", "setting": "in acetonitrile, 288.15 K", "result": 0.0458}, {"measurement": "solubility (mole fraction)", "setting": "in acetonitrile, 293.15 K", "result": 0.0607}, {"measurement": "solubility (mole fraction)", "setting": "in acetonitrile, 298.15 K", "result": 0.0789}, {"measurement": "solubility (mole fraction)", "setting": "in acetonitrile, 303.15 K", "result": 0.0968}, {"measurement": "solubility (mole fraction)", "setting": "in acetonitrile, 308.15 K", "result": 0.128}, {"measurement": "solubility (mole fraction)", "setting": "in acetonitrile, 313.15 K", "result": 0.159}, {"measurement": "solubility (mole fraction)", "setting": "in acetonitrile, 318.15 K", "result": 0.196}, {"measurement": "solubility (mole fraction)", "setting": "in acetonitrile, 323.15 K", "result": 0.248}, {"measurement": "solubility (mole fraction)", "setting": "in ethanol, 278.15 K", "result": 0.125}, {"measurement": "solubility (mole fraction)", "setting": "in ethanol, 283.15 K", "result": 0.151}, {"measurement": "solubility (mole fraction)", "setting": "in ethanol, 288.15 K", "result": 0.184}, {"measurement": "solubility (mole fraction)", "setting": "in ethanol, 293.15 K", "result": 0.235}, {"measurement": "solubility (mole fraction)", "setting": "in ethanol, 298.15 K", "result": 0.3}, {"measurement": "solubility (mole fraction)", "setting": "in ethanol, 303.15 K", "result": 0.352}, {"measurement": "solubility (mole fraction)", "setting": "in ethanol, 308.15 K", "result": 0.424}, {"measurement": "solubility (mole fraction)", "setting": "in ethanol, 313.15 K", "result": 0.497}, {"measurement": "solubility (mole fraction)", "setting": "in ethanol, 318.15 K", "result": 0.561}, {"measurement": "solubility (mole fraction)", "setting": "in ethanol, 323.15 K", "result": 0.661}, {"measurement": "solubility (mole fraction)", "setting": "in ethyl acetate, 278.15 K", "result": 0.101}, {"measurement": "solubility (mole fraction)", "setting": "in ethyl acetate, 283.15 K", "result": 0.104}, {"measurement": "solubility (mole fraction)", "setting": "in ethyl acetate, 288.15 K", "result": 0.116}, {"measurement": "solubility (mole fraction)", "setting": "in ethyl acetate, 293.15 K", "result": 0.127}, {"measurement": "solubility (mole fraction)", "setting": "in ethyl acetate, 298.15 K", "result": 0.146}, {"measurement": "solubility (mole fraction)", "setting": "in ethyl acetate, 303.15 K", "result": 0.17}, {"measurement": "solubility (mole fraction)", "setting": "in ethyl acetate, 308.15 K", "result": 0.192}, {"measurement": "solubility (mole fraction)", "setting": "in ethyl acetate, 313.15 K", "result": 0.221}, {"measurement": "solubility (mole fraction)", "setting": "in ethyl acetate, 318.15 K", "result": 0.25}, {"measurement": "solubility (mole fraction)", "setting": "in ethyl acetate, 323.15 K", "result": 0.299}, {"measurement": "solubility (mole fraction)", "setting": "in ethyl formate, 278.15 K", "result": 0.0572}, {"measurement": "solubility (mole fraction)", "setting": "in ethyl formate, 283.15 K", "result": 0.0618}, {"measurement": "solubility (mole fraction)", "setting": "in ethyl formate, 288.15 K", "result": 0.0699}, {"measurement": "solubility (mole fraction)", "setting": "in ethyl formate, 293.15 K", "result": 0.0798}, {"measurement": "solubility (mole fraction)", "setting": "in ethyl formate, 298.15 K", "result": 0.0914}, {"measurement": "solubility (mole fraction)", "setting": "in ethyl formate, 303.15 K", "result": 0.107}, {"measurement": "solubility (mole fraction)", "setting": "in ethyl formate, 308.15 K", "result": 0.123}, {"measurement": "solubility (mole fraction)", "setting": "in ethyl formate, 313.15 K", "result": 0.14}, {"measurement": "solubility (mole fraction)", "setting": "in ethyl formate, 318.15 K", "result": 0.164}, {"measurement": "solubility (mole fraction)", "setting": "in ethyl formate, 323.15 K", "result": 0.204}, {"measurement": "solubility (mole fraction)", "setting": "in isobutanol, 278.15 K", "result": 0.0895}, {"measurement": "solubility (mole fraction)", "setting": "in isobutanol, 283.15 K", "result": 0.111}, {"measurement": "solubility (mole fraction)", "setting": "in isobutanol, 288.15 K", "result": 0.139}, {"measurement": "solubility (mole fraction)", "setting": "in isobutanol, 293.15 K", "result": 0.17}, {"measurement": "solubility (mole fraction)", "setting": "in isobutanol, 298.15 K", "result": 0.214}, {"measurement": "solubility (mole fraction)", "setting": "in isobutanol, 303.15 K", "result": 0.265}, {"measurement": "solubility (mole fraction)", "setting": "in isobutanol, 308.15 K", "result": 0.332}, {"measurement": "solubility (mole fraction)", "setting": "in isobutanol, 313.15 K", "result": 0.39}, {"measurement": "solubility (mole fraction)", "setting": "in isobutanol, 318.15 K", "result": 0.454}, {"measurement": "solubility (mole fraction)", "setting": "in isobutanol, 323.15 K", "result": 0.558}, {"measurement": "solubility (mole fraction)", "setting": "in isopropanol, 278.15 K", "result": 0.123}, {"measurement": "solubility (mole fraction)", "setting": "in isopropanol, 283.15 K", "result": 0.134}, {"measurement": "solubility (mole fraction)", "setting": "in isopropanol, 288.15 K", "result": 0.154}, {"measurement": "solubility (mole fraction)", "setting": "in isopropanol, 293.15 K", "result": 0.175}, {"measurement": "solubility (mole fraction)", "setting": "in isopropanol, 298.15 K", "result": 0.2}, {"measurement": "solubility (mole fraction)", "setting": "in isopropanol, 303.15 K", "result": 0.237}, {"measurement": "solubility (mole fraction)", "setting": "in isopropanol, 308.15 K", "result": 0.27}, {"measurement": "solubility (mole fraction)", "setting": "in isopropanol, 313.15 K", "result": 0.314}, {"measurement": "solubility (mole fraction)", "setting": "in isopropanol, 318.15 K", "result": 0.364}, {"measurement": "solubility (mole fraction)", "setting": "in isopropanol, 323.15 K", "result": 0.428}, {"measurement": "solubility (mole fraction)", "setting": "in methyl acetate, 278.15 K", "result": 0.0958}, {"measurement": "solubility (mole fraction)", "setting": "in methyl acetate, 283.15 K", "result": 0.106}, {"measurement": "solubility (mole fraction)", "setting": "in methyl acetate, 288.15 K", "result": 0.12}, {"measurement": "solubility (mole fraction)", "setting": "in methyl acetate, 293.15 K", "result": 0.134}, {"measurement": "solubility (mole fraction)", "setting": "in methyl acetate, 298.15 K", "result": 0.149}, {"measurement": "solubility (mole fraction)", "setting": "in methyl acetate, 303.15 K", "result": 0.17}, {"measurement": "solubility (mole fraction)", "setting": "in methyl acetate, 308.15 K", "result": 0.2}, {"measurement": "solubility (mole fraction)", "setting": "in methyl acetate, 313.15 K", "result": 0.234}, {"measurement": "solubility (mole fraction)", "setting": "in methyl acetate, 318.15 K", "result": 0.271}, {"measurement": "solubility (mole fraction)", "setting": "in methyl acetate, 323.15 K", "result": 0.318}, {"measurement": "solubility (mole fraction)", "setting": "in n-butyl acetate, 278.15 K", "result": 0.0915}, {"measurement": "solubility (mole fraction)", "setting": "in n-butyl acetate, 283.15 K", "result": 0.0974}, {"measurement": "solubility (mole fraction)", "setting": "in n-butyl acetate, 288.15 K", "result": 0.106}, {"measurement": "solubility (mole fraction)", "setting": "in n-butyl acetate, 293.15 K", "result": 0.122}, {"measurement": "solubility (mole fraction)", "setting": "in n-butyl acetate, 298.15 K", "result": 0.139}, {"measurement": "solubility (mole fraction)", "setting": "in n-butyl acetate, 303.15 K", "result": 0.162}, {"measurement": "solubility (mole fraction)", "setting": "in n-butyl acetate, 308.15 K", "result": 0.185}, {"measurement": "solubility (mole fraction)", "setting": "in n-butyl acetate, 313.15 K", "result": 0.209}, {"measurement": "solubility (mole fraction)", "setting": "in n-butyl acetate, 318.15 K", "result": 0.247}, {"measurement": "solubility (mole fraction)", "setting": "in n-butyl acetate, 323.15 K", "result": 0.296}, {"measurement": "solubility (mole fraction)", "setting": "in n-propanol, 278.15 K", "result": 0.127}, {"measurement": "solubility (mole fraction)", "setting": "in n-propanol, 283.15 K", "result": 0.138}, {"measurement": "solubility (mole fraction)", "setting": "in n-propanol, 288.15 K", "result": 0.159}, {"measurement": "solubility (mole fraction)", "setting": "in n-propanol, 293.15 K", "result": 0.197}, {"measurement": "solubility (mole fraction)", "setting": "in n-propanol, 298.15 K", "result": 0.238}, {"measurement": "solubility (mole fraction)", "setting": "in n-propanol, 303.15 K", "result": 0.279}, {"measurement": "solubility (mole fraction)", "setting": "in n-propanol, 308.15 K", "result": 0.342}, {"measurement": "solubility (mole fraction)", "setting": "in n-propanol, 313.15 K", "result": 0.405}, {"measurement": "solubility (mole fraction)", "setting": "in n-propanol, 318.15 K", "result": 0.46}, {"measurement": "solubility (mole fraction)", "setting": "in n-propanol, 323.15 K", "result": 0.54}, {"measurement": "solubility (mole fraction)", "setting": "in n-propyl acetate, 278.15 K", "result": 0.0958}, {"measurement": "solubility (mole fraction)", "setting": "in n-propyl acetate, 283.15 K", "result": 0.103}, {"measurement": "solubility (mole fraction)", "setting": "in n-propyl acetate, 288.15 K", "result": 0.112}, {"measurement": "solubility (mole fraction)", "setting": "in n-propyl acetate, 293.15 K", "result": 0.127}, {"measurement": "solubility (mole fraction)", "setting": "in n-propyl acetate, 298.15 K", "result": 0.144}, {"measurement": "solubility (mole fraction)", "setting": "in n-propyl acetate, 303.15 K", "result": 0.161}, {"measurement": "solubility (mole fraction)", "setting": "in n-propyl acetate, 308.15 K", "result": 0.182}, {"measurement": "solubility (mole fraction)", "setting": "in n-propyl acetate, 313.15 K", "result": 0.211}, {"measurement": "solubility (mole fraction)", "setting": "in n-propyl acetate, 318.15 K", "result": 0.243}, {"measurement": "solubility (mole fraction)", "setting": "in n-propyl acetate, 323.15 K", "result": 0.297}, {"measurement": "solubility (mole fraction)", "setting": "in toluene, 278.15 K", "result": 0.00841}, {"measurement": "solubility (mole fraction)", "setting": "in toluene, 283.15 K", "result": 0.00904}, {"measurement": "solubility (mole fraction)", "setting": "in toluene, 288.15 K", "result": 0.011}, {"measurement": "solubility (mole fraction)", "setting": "in toluene, 293.15 K", "result": 0.0136}, {"measurement": "solubility (mole fraction)", "setting": "in toluene, 298.15 K", "result": 0.0172}, {"measurement": "solubility (mole fraction)", "setting": "in toluene, 303.15 K", "result": 0.0214}, {"measurement": "solubility (mole fraction)", "setting": "in toluene, 308.15 K", "result": 0.0274}, {"measurement": "solubility (mole fraction)", "setting": "in toluene, 313.15 K", "result": 0.0331}, {"measurement": "solubility (mole fraction)", "setting": "in toluene, 318.15 K", "result": 0.0419}, {"measurement": "solubility (mole fraction)", "setting": "in toluene, 323.15 K", "result": 0.0515}]}
